Assays:
Format in all cases: in vivo
[1] = system: Viola tricolor; test: Herbicidal effect post-emergence; settings: 320 g/ha, visual grading after ca. 3 weeks (Table 9)
Text: (§1) Herbicidal activities of the compounds of the formulae (G1) or (G2) according to the invention were investigated against the following harmful plants: • ALOMY=Alopecurus myosuroides • ECHCG=Echinochloa crus-galli • SETVI=Setaria viridis • ABUTH=Abutilon theophrasti • AMARE=Amaranthus retroflexus • PHBPU=Pharbitis purpurea • POLCO=Polygonum convolvulus (=Fallopia convolvulus) • STEME=Stellaria media • VIOTR=Viola tricolor
(§2) Seeds of mono- and dicotyledonous weed plants and crop plants are sown in wood-fiber pots in sandy loam, covered with soil and grown in a greenhouse under controlled growth conditions. 2 to 3 weeks after sowing, the test plants are sprayed in the single-leaf stage. The compounds according to the invention, formulated in form of wettable powders (WP) or as emulsifiable concentrates (EC), are then sprayed onto the green plant parts as aqueous suspension or emulsion, with the addition of 0.5% of an additive, at an application rate of 600 l of water/ha (converted). After the test plants had been in the greenhouse for ca. 3 weeks under optimum growth conditions, the effect of the preparations is assessed visually in comparison with untreated controls (herbicidal effect in percent (%): 100% effect=plants have died off, 0% effect=as control plants).

[2] = system: Amaranthus retroflexus; test: Herbicidal effect post-emergence; settings: 320 g/ha, visual grading after ca. 3 weeks (Table 9)
Text: as §1, §2

[3] = system: Setaria viridis; test: Herbicidal effect post-emergence; settings: 320 g/ha, visual grading after ca. 3 weeks (Table 9)
Text: as §1, §2

[4] = system: Viola tricolor; test: Herbicidal effect pre-emergence; settings: 320 g/ha, visual grading after ca. 3 weeks vs untreated controls
Text: as §1
(§3) Seeds of mono- and dicotyledonous weed plants and crop plants are sown in wood-fiber pots in sandy loam and covered with soil. The compounds according to the invention, formulated in the form of wettable powders (WP) or as emulsifiable concentrates (EC), are then applied to the surface of the covering soil as aqueous suspension or emulsion, with the addition of 0.5% of an additive, at an application rate of 600 l of water/ha (converted).
(§4) Following treatment, the pots are placed in a greenhouse and kept under optimum growth conditions for the test plants. The visual grading of the damage to the test plants is carried out after ca. 3 weeks in comparison to untreated controls (herbicidal effect in percent (%): 100% effect=plants have died off, 0% effect=as control plants).

[5] = system: Amaranthus retroflexus; test: Herbicidal effect pre-emergence; settings: 320 g/ha, visual grading after ca. 3 weeks vs untreated controls
Text: as §1, §3, §4

[6] = system: Setaria viridis; test: Herbicidal effect pre-emergence; settings: 320 g/ha, visual grading after ca. 3 weeks vs untreated controls
Text: as §1, §3, §4

SMILES	herbicidal effect VIOTR [1]	herbicidal effect AMARE [2]	herbicidal effect SETVI [3]	herbicidal effect VIOTR [4]	herbicidal effect AMARE [5]	herbicidal effect SETVI [6]
CCC(=O)Nc1nsc2c1CC(CO)N(CC1CCCCC1)C2=O (stereo not drawn) [Example I-044]	100%	100%	100%	100%	100%	90%
CC(C)Cc1cc2c(NC(=O)C(F)(F)F)nsc2c(=O)n1CC1CCCCC1 [Example I-056]	90%	90%	100%	100%	90%	90%
C#Cc1cn(CC2CCCCC2)c(=O)c2snc(N)c12 [Example I-070]	100%	100%	100%	100%	100%	100%
CCC(=O)N(C(=O)CC)c1nsc2c(=O)n(CC3CCCCC3)cc(Br)c12 [Example I-079]	100%	100%	90%	100%	100%	100%
C=Cc1cn(CC2CCCCC2)c(=O)c2snc(N)c12 [Example I-080]	80%	100%	100%	100%	80%	80%
CCC(=O)N(C(=O)CC)c1nsc2c(=O)n(CC3CCCCC3)cc(Cl)c12 [Example I-082]	100%	100%	100%	100%	100%	100%
COCC(=O)Nc1nsc2c(=O)n(CC3CCCCC3)cc(Cl)c12 [Example I-085]	100%	100%	100%	100%	100%	100%
COCC#Cc1cn(CC2CCCCC2)c(=O)c2snc(N)c12 [Example I-103]	100%	100%	100%	100%	90%	80%
C/C=C/c1cn(CC2CCCCC2)c(=O)c2snc(N)c12 [Example I-118]	100%	100%	100%	80%	90%	90%
N#Cc1cn(CC2CCCCC2)c(=O)c2snc(N)c12 [Example I-135]	100%	100%	90%	100%	100%	100%
